This is an account of results in patent US20260297035A1, “PROTEIN KINASE INHIBITORS AND USES THEREOF” (DELiver Therapeutics, Inc., priority 2023, published 2026).

pIC50: −log10 of the molar value. Like-named read-outs stand apart in the source and are kept apart here.

The target of one assay is ABL1(wt) (Homo sapiens, UniProt P00519). In words: Z′-LYTE assay (labeled peptide cleavage), ABL1(wt). The class given is biochemical. The text has this: (§1) This Example describes a cell-free assay utilized to identify candidate compounds that bind to and inhibit protein kinase (PK) and PK variants. One assay is referred to as a “Z′-LYTE assay” and is an example of a labeled peptide cleavage assay. The fluorescence-based assay relies on the differential sensitivity of a small, dual-end-labelled peptide to cleavage by a protease, dependent on the phosphorylation state of the peptide (FIG. 1). The peptide substrate is end-labelled with two distinct fluorophores that comprise a Fluorescence Resonance Energy Transfer (FRET) pair.
(§2) In the absence of inhibitor, the kinase transfers the gamma-phosphate from ATP to the single, unique tyrosine, serine or threonine in the synthetic FRET peptide. The reaction conditions are titrated such that 10-40% of the peptide substrate is phosphorylated. In a second reaction, a site-specific protease that only recognizes and cleaves the non-phosphorylated FRET peptide is added. Cleavage interferes with FRET between the donor (i.e., coumarin) and the acceptor (i.e., fluorescein) fluorophores on the FRET-peptide substrate, unlike the phosphorylated, uncleaved peptide.
(§3) The Test Compounds are screened in 1% DMSO (final) in the well.
(§4) All Peptide/Kinase Mixtures are diluted to a 2× working concentration in the appropriate Kinase Buffer. The 2×ABL1 polypeptide/Tyr 02 substrate peptide mixture is prepared in 50 mM HEPES pH 7.5, 0.01% BRIJ-35, 10 mM MgCl2, 1 mM EGTA. The final 10 μL Kinase Reaction contains 0.3-1.2 ng ABL1 (or 1.36-6 ng ABL1(T315I)) and 2 μM Tyr 02 in 50 mM HEPES, pH 7.5, 0.01% BRIJ-35, 10 mM MgCl2, 1 mM EGTA. After the 1-hour Kinase Reaction incubation, 5 μL of a 1:128 dilution of Development Reagent A is added. The ABL1(wt) polypeptide utilized for the assay described in this Example was the “isoahABL1(wt)” polypeptide described herein (SEQ ID NO:4), which is referred to as “ABL1” in Table 1 and “ABL1(wt)” or “WT” in Table 3 of this Example. The ABL1 variant polypeptides utilized contained the same polypeptide as the “isoahABL1(wt)” polypeptide except that each contained one corresponding amino acid substitution chosen from E255K, F317I, F317L, G250E, T315I or Y253F. […]
(§5) All ATP Solutions are diluted to a 4× working concentration in Kinase Buffer (50 mM HEPES, pH 7.5, 0.01% BRIJ-35, 10 mM MgCl2, 1 mM EGTA). The ATP Km apparent (Km app) is previously determined using a Z′-LYTE assay.
(§6) Bar-coded Corning, low volume NBS, black 384-well plate (Corning Cat. #4514) • 1. […] Read on fluorescence plate reader and analyze the data
A known inhibitor control standard curve, 10-point titration, is run for each individual kinase on the same plate as the kinase to ensure the kinase is inhibited within an expected IC50 range previously determined. […]

The target in a further assay is T1, ABL1 T315I (Homo sapiens, UniProt P00519, T315I).
T1 construct: The ABL1 variant polypeptides utilized contained the same polypeptide as the “isoahABL1(wt)” polypeptide except that each contained one corresponding amino acid substitution
In words: Z′-LYTE assay, ABL1 T315I. It counts as biochemical.
From the text: as §1, §2, §3, §4, §5, §6

What is called pIC50 is the IC50 on a negative log10 scale, so that one unit is a factor of ten. In the case of `Cc1ccc(Nc2ncc3cccc(-c4ccc(F)cc4OC(C)C)c3n2)cc1NC(=O)c1ccc(C(=O)N(C)C)cc1` [Cmpd11, N1-(5-((8-(4-fluoro-2-isopropoxyphenyl)quinazolin-2-yl)amino)-2-methylphenyl)-N4,N4-dimethylterephthalamide], the pIC50 on ABL1(wt) (class by IC50 values in Table 5, read-out: inhibitor class of ABL1(wt) according to IC50) is above 7.70; on ABL1(wt) (test compounds, Z′-LYTE, read-out: IC50 values for test compounds, ABL1(wt)) it was 8.53; on ABL1 T315I (class by IC50 values in Table 5, read-out: inhibitor class of ABL(T315I) according to IC50), above 7.70; on ABL1 T315I (test compounds, Z′-LYTE, read-out: IC50 values for test compounds, ABL1(T315I)), 8.72.
